Results: patent publication US20250270330A1, “TREATMENT OF HEADACHE DISORDERS WITH NK3 MODULATORS” (Kallyope, Inc., priority 2022, published 2025)

How the values were obtained:
[1] = test system: rats with inflammatory soup-sensitized trigeminal ganglia; assay: In vivo migraine headache model: von Frey periorbital threshold after GTN challenge; parameters: species or system Sprague-Dawley rats
Procedure: Surgeries were performed as previously described in Oshinsky, M. L. & Gomonchareonsiri, S., Episodic dural stimulation in awake rats: a model for recurrent headache, 47 HEADACHE 1026-1036 (2007). Adult male Sprague-Dawley rats were habituated towards handling for 1-2 weeks before undergoing dural cannulation surgery under isoflurane anesthesia. Attention was given not to disturb the dura. A custom flange guide cannula (22GA, Plastics One) was inserted. The cannula was fixed to the bone with small screws and dental cement.
After 1-2 weeks of recovery from surgery, animals received supradural infusions of an inflammatory soup comprising 2 mM histamine, bradykinin, serotonin, 0.2 mM prostaglandin E2 under brief isoflurane anesthesia (1.5-3%) for 5 consecutive days (1/day) (i.e., the 5-day sensitization period).
The design was within-subjects with the same animals receiving multiple treatments in a crossover fashion with at least one week washout between each treatment. Evoked sensory testing for mechanical allodynia was done by von Frey periorbital threshold testing. Sensory testing occurred during the day using von Frey filaments with reproducible calibrated buckling forces varying from 0.4-10 g and utilizing the up-and-down method. See Dixon, W. J., The Up-and-Down Method for Small Samples, 60 J. AM. STAT. ASSOC., 967-978 (1965); Chaplan, S. R., Bach, F. W., Pogrel, J. W., Chung, J. M. & Yaksh, T. L., Quantitative assessment of tactile allodynia in the rat paw, 53 J. NEUROSCI. METHODS 55-63 (1994) (hereinafter “Chaplan 1994”). Based on the response pattern and the force of the final filament, the periorbital threshold (g) was calculated according to the prior art method set forth, e.g., in Chaplan 1994 and Bonin, R. P., Bories, C. & De Koninck, Y., A simplified up-down method (SUDO) for measuring mechanical nociception in rodents using von Frey filaments, 10 MOL. PAIN 26 (2014). A blinded investigator tested periorbital sensitivity before drug administration, and 45 min and 1.5 h after drug administration. Studies were conducted with n=13-22.

luteinizing hormone (LH) = assay: Luteinizing hormone (LH) inhibition studies, serum LH by ELISA; format: in vivo, castrated male Sprague-Dawley rats; conditions: for reduction in LH levels: 100 mg/kg
Procedure: Studies measuring LH were performed on castrated male Sprague-Dawley rats. Briefly, animals were castrated through a midline scrotal incision using Zoletil® 50 as an anesthetic. Surgeries were performed at least 15 days before compound testing.
Serum was collected at baseline, then every 15 minutes starting from 30 minutes after PO […] dosing with vehicle, fezolinetant (30 mg/kg), or SB 235375 (30 and 100 mg/kg). Blood was collected from the jugular vein, transferred into 1.5-mL centrifuge tubes, and centrifuged at 8000 g for 15 minutes to separate the serum. Serum LH levels were determined using a rat luteinizing hormone ELISA kit (Colorimetric, Novus). The assays were performed following the manufacturer's protocol. Group sizes were from n=10 for the vehicle and SB 235375 groups and n=4 for fezolinetant.

Q: Which “pain (periorbital) threshold” value ([1]; GTN + 30 and 100 mg/kg PO, 45, 90 minutes, vs GTN and vehicle) does the source give for `CC[C@H](NC(=O)c1c(OCC(=O)O)c(-c2ccccc2)nc2ccccc12)c1ccccc1` [SB 235375] here?
A: Its value is “higher pain thresholds”.

Q: And the “mean LH value” (luteinizing hormone (LH); 30 mg/kg PO, 0 min (baseline))?
A: The value was 31.6 ng/mL.

Q: What about the “mean LH value” (luteinizing hormone (LH); 30 mg/kg PO, 30 min) of the same molecule?
A: Its value is 33.4 ng/mL.

Q: What about the “mean LH value” (luteinizing hormone (LH); 30 mg/kg PO, 90 min) of the same molecule?
A: The value was 35.8 ng/mL.

Q: What about the “mean LH value” (luteinizing hormone (LH); 30 mg/kg PO, 150 min) of the same molecule?
A: The value was 30.4 ng/mL.

Q: What about the “increase in LH levels” value (luteinizing hormone (LH); 30 mg/kg, 30 minutes) of the same molecule?
A: Its value is “~+4%”.

Q: What about the “increase in LH levels” value (luteinizing hormone (LH); 30 mg/kg, 90 minutes) of the same molecule?
A: Its value is “~+13%”.

Q: What about the “reduction in LH levels compared to vehicle” value (“reduction … to vehicle” for short) (luteinizing hormone (LH); 30 mg/kg, 150 minutes) of the same molecule?
A: Its value is “roughly 4%”.

Q: And the “mean LH value” (luteinizing hormone (LH); 100 mg/kg PO, 0 min (baseline))?
A: The value was 34.7 ng/mL.

Q: And the “mean LH value” (luteinizing hormone (LH); 100 mg/kg PO, 30 min)?
A: The value was 25.7 ng/mL.

Q: What about the “mean LH value” (luteinizing hormone (LH); 100 mg/kg PO, 90 min) of the same molecule?
A: Its value is 29.7 ng/mL.

Q: And the “mean LH value” (luteinizing hormone (LH); 100 mg/kg PO, 150 min)?
A: Its value is 31.1 ng/mL.

Q: And the “reduction in LH levels” value (luteinizing hormone (LH); 30 minutes)?
A: Its value is “roughly 26%”.

Q: And the “reduction in LH levels” value (luteinizing hormone (LH); 90 minutes)?
A: Its value is roughly 14%.

Q: And the “reduction in LH levels” value (luteinizing hormone (LH); 150 minutes)?
A: Its value is roughly 10%.

Q: What about the “LH levels compared to the vehicle-treated group” value (luteinizing hormone (LH); 30 and 100 mg/kg) of the same molecule?
A: The value was “did not exhibit a significant difference”.

Q: Which “withdrawal (periorbital) threshold” value ([1]; GTN + 30 mg/kg PO, 90 min timepoint, vs saline+vehicle or GTN+vehicle) does the source give for `Cc1nsc(-c2nnc3n2CCN(C(=O)c2ccc(F)cc2)[C@@H]3C)n1` [fezolinetant] here?
A: The value was “significantly higher”.

Q: And the “withdrawal (periorbital) threshold” value ([1]; GTN + 100 mg/kg PO, both timepoints (45 min, 1.5 h), vs each control group)?
A: Its value is “significantly higher”.

Q: What about the “mean LH value” (luteinizing hormone (LH); 30 mg/kg PO, 0 min (baseline)) of the same molecule?
A: Its value is 37.3 ng/mL.

Q: And the “mean LH value” (luteinizing hormone (LH); 30 mg/kg PO, 30 min)?
A: Its value is 15.2 ng/mL.

Q: What about the “mean LH value” (luteinizing hormone (LH); 30 mg/kg PO, 90 min) of the same molecule?
A: Its value is 6.1 ng/mL.

Q: What about the “mean LH value” (luteinizing hormone (LH); 30 mg/kg PO, 150 min) of the same molecule?
A: The value was 5.5 ng/mL.

Q: And the “reduction … to vehicle” value (luteinizing hormone (LH); 30 mg/kg, 30 minutes)?
A: The value was “approximately 60%”.

Q: And the “reduction … to vehicle” value (luteinizing hormone (LH); 30 mg/kg, 90 minutes)?
A: Its value is “roughly 85%”.

Q: And the “reduction … to vehicle” value (luteinizing hormone (LH); 30 mg/kg, 150 minutes)?
A: The value was “roughly 85%”.

Q: And the LH serum concentrations (luteinizing hormone (LH); 30 mg/kg, all measured time points (30, 90, and 150 min))?
A: The LH serum concentrations was “significantly reduced”.
